Data reported in the NIST ThermoML archive (doi:10.1021/je020149l).

What was measured:
[1] = 293.15 K; 101.33 kPa; Liquid; Vibrating tube method
[2] = excess molar enthalpy (molar enthalpy of mixing); xn = mol fraction of the nth substance listed; conditions: 323.15 K, 101 kPa, Liquid, Flow calorimetry

CC(C)=O [acetone]
Conditions	mass density [kg/m3]
[1]	790.31

CC(C)=O [acetone] + CCCO
[2]
Conditions	excess molar enthalpy [kcal/mol]
x2 = 0.025	0.0605
x2 = 0.052	0.0968
x2 = 0.101	0.154
x2 = 0.151	0.202
x2 = 0.2	0.245
x2 = 0.252	0.282
x2 = 0.302	0.311
x2 = 0.351	0.334
x2 = 0.401	0.349
x2 = 0.451	0.359
x2 = 0.501	0.363
x2 = 0.551	0.361
x2 = 0.601	0.354
x2 = 0.651	0.34
x2 = 0.702	0.32
x2 = 0.752	0.295
x2 = 0.8	0.265
x2 = 0.851	0.223
x2 = 0.901	0.168
x2 = 0.952	0.112
x2 = 0.975	0.0803

CC(C)=O [acetone] + CCO
[2]
Conditions	excess molar enthalpy [kcal/mol]
x2 = 0.05	0.0609
x2 = 0.102	0.115
x2 = 0.15	0.156
x2 = 0.2	0.192
x2 = 0.252	0.222
x2 = 0.3	0.243
x2 = 0.352	0.259
x2 = 0.4	0.269
x2 = 0.452	0.273
x2 = 0.501	0.272
x2 = 0.551	0.265
x2 = 0.6	0.255
x2 = 0.65	0.24
x2 = 0.702	0.22
x2 = 0.752	0.196
x2 = 0.8	0.168
x2 = 0.85	0.134
x2 = 0.901	0.0937
x2 = 0.95	0.0504

C1CCCCC1 [cyclohexane]
Conditions	mass density [kg/m3]
[1]	778.56

C1CCCCC1 [cyclohexane] + CCO
[2]
Conditions	excess molar enthalpy [kcal/mol]
x2 = 0.032	0.106
x2 = 0.054	0.132
x2 = 0.102	0.169
x2 = 0.151	0.192
x2 = 0.202	0.207
x2 = 0.251	0.217
x2 = 0.3	0.223
x2 = 0.351	0.226
x2 = 0.401	0.226
x2 = 0.452	0.223
x2 = 0.5	0.217
x2 = 0.551	0.209
x2 = 0.601	0.198
x2 = 0.65	0.185
x2 = 0.707	0.165
x2 = 0.75	0.15
x2 = 0.802	0.127
x2 = 0.851	0.101
x2 = 0.901	0.0722
x2 = 0.951	0.038

CCO [ethanol]
Conditions	mass density [kg/m3]
[1]	789.29

CCCCCCC [heptane]
Conditions	mass density [kg/m3]
[1]	683.91

CCCCCCC [heptane] + CCCO
[2]
Conditions	excess molar enthalpy [kcal/mol]
x2 = 0.01	0.0963
x2 = 0.024	0.142
x2 = 0.034	0.161
x2 = 0.053	0.188
x2 = 0.103	0.229
x2 = 0.154	0.254
x2 = 0.203	0.269
x2 = 0.254	0.279
x2 = 0.301	0.283
x2 = 0.353	0.282
x2 = 0.402	0.277
x2 = 0.451	0.27
x2 = 0.503	0.26
x2 = 0.551	0.247
x2 = 0.602	0.232
x2 = 0.651	0.214
x2 = 0.702	0.195
x2 = 0.75	0.174
x2 = 0.801	0.147
x2 = 0.851	0.124
x2 = 0.901	0.0987
x2 = 0.951	0.0717

CCCCCCCC [octane]
Conditions	mass density [kg/m3]
[1]	702.87

CCCCCCCC [octane] + CCCO
[2]
Conditions	excess molar enthalpy [kcal/mol]
x2 = 0.027	0.202
x2 = 0.053	0.254
x2 = 0.103	0.31
x2 = 0.15	0.337
x2 = 0.208	0.359
x2 = 0.254	0.367
x2 = 0.301	0.37
x2 = 0.352	0.367
x2 = 0.401	0.363
x2 = 0.452	0.351
x2 = 0.5	0.337
x2 = 0.55	0.32
x2 = 0.602	0.297
x2 = 0.652	0.268
x2 = 0.702	0.242
x2 = 0.752	0.214
x2 = 0.802	0.181
x2 = 0.852	0.148
x2 = 0.901	0.106
x2 = 0.95	0.0784

CCCCCCCC [octane] + CCO
[2]
Conditions	excess molar enthalpy [kcal/mol]
x2 = 0.028	0.206
x2 = 0.054	0.257
x2 = 0.104	0.303
x2 = 0.151	0.326
x2 = 0.201	0.343
x2 = 0.252	0.355
x2 = 0.304	0.357
x2 = 0.352	0.355
x2 = 0.404	0.348
x2 = 0.452	0.337
x2 = 0.502	0.323
x2 = 0.551	0.307
x2 = 0.601	0.288
x2 = 0.651	0.267
x2 = 0.7	0.245
x2 = 0.752	0.217
x2 = 0.801	0.191
x2 = 0.85	0.16
x2 = 0.901	0.121
x2 = 0.95	0.0813

CCCO [propan-1-ol]
Conditions	mass density [kg/m3]
[1]	803.63
